Assay results published in paper PMC12369477 (Journal of Experimental Botany, 2025).
Blank lines part the entries; values can stand above or below the compound they belong to.

Experiments:
AtGH3.6 [1] = molecular target: T1, AtGH3.6 (Arabidopsis thaliana, UniProt Q9LSQ4); test: crystal structure with AMP and Asp; MST; assay type: binding
T1 construct: gene GH3.6
T1 sequence (Q9LSQ4 1-612): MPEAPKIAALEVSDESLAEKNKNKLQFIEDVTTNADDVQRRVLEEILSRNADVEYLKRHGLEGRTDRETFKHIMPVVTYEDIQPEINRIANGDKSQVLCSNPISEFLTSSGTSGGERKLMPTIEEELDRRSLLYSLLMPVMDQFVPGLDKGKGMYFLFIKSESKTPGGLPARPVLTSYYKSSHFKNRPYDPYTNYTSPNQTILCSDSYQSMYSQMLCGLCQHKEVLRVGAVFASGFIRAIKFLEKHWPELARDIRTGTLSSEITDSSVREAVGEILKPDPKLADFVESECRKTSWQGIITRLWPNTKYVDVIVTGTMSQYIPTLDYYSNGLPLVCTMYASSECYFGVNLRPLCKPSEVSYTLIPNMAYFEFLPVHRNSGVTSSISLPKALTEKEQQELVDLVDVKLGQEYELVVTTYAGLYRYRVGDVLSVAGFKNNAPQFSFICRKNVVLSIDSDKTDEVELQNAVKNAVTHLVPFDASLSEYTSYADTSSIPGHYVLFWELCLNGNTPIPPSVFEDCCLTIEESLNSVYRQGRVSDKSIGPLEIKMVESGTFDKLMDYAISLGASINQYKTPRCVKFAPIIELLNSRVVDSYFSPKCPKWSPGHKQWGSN

AtGH3.6 [2] = molecular target: T1, AtGH3.6; test: MST; assay type: binding
UGT74D1 = molecular target: T2, UGT74D1 (Arabidopsis thaliana, UniProt Q9SKC5); test: bacterial lysate glucosylation assay, HPLC-MS/MS; assay type: cell-based
T2 construct: recombinant AtUGT74D1 in E. coli lysate
T2 sequence (Q9SKC5 1-456): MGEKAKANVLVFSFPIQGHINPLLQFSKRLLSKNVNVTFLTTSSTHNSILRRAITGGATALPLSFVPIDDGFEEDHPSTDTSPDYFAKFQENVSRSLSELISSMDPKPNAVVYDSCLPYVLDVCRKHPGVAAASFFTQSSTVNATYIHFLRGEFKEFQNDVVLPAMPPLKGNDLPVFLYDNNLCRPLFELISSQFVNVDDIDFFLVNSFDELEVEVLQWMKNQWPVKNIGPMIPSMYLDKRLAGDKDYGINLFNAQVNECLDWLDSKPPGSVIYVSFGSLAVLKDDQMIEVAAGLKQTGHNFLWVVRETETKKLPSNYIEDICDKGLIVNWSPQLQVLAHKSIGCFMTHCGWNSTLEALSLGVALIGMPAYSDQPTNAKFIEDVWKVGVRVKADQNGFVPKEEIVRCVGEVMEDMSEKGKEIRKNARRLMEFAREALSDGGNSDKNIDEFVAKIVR

UGT84B1 = molecular target: T3, UGT84B1 (Arabidopsis thaliana, UniProt O22182); test: bacterial lysate glucosylation assay, HPLC-MS/MS; assay type: cell-based
T3 construct: recombinant AtUGT84B1 in E. coli lysate
T3 sequence (O22182 1-456): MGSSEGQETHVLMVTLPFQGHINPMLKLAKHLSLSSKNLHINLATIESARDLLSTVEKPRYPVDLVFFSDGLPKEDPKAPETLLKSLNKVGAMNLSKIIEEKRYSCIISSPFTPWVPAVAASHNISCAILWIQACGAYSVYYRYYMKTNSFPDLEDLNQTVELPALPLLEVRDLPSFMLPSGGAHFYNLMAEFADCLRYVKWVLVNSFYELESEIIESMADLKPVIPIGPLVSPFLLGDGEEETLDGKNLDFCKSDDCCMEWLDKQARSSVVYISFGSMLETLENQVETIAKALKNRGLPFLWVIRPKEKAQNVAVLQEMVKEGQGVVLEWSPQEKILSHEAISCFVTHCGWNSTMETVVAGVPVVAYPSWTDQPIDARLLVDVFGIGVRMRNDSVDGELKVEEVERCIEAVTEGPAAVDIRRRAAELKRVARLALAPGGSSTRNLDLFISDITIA

AtGH3.6 [3] = molecular target: T1, AtGH3.6; test: MST; also conjugated by AtGH3.[…] in bacterial lysate assay; assay type: binding

Compound: N[C@@H](CC(=O)O)C(=O)O [Asp, aspartate]
Kd (AtGH3.6 [1]): 680 µM

Compound: N[C@@H](CCC(=O)O)C(=O)O [Glu]
Kd (AtGH3.6 [2]): 720 µM

Kd (AtGH3.6 [2]; read-out: Kd): ~60 µM
Compound: O=C(O)Cc1c[nH]c2ccccc12 [IAA, indole-3-acetic acid]
bacterial lysate glucosylation assay, HPLC-MS/MS (UGT74D1): Both UGT84B1 and UGT74D1 recombinant proteins showed the capability to produce IAA-glc and PAA-glc
bacterial lysate glucosylation assay, HPLC-MS/MS (UGT84B1): Both UGT84B1 and UGT74D1 recombinant proteins showed the capability to produce IAA-glc and PAA-glc

Compound: O=C(O)Cc1ccccc1 [PAA, phenylacetic acid]
Kd (AtGH3.6 [3]): ~60 µM
